According to patent US20250188162A1, “INHIBITOR OF INTERLEUKIN-1 RECEPTOR TYPE 1 FOR USE IN THE TREATMENT OF CANCER” (Buzzard Pharmaceuticals AB, priority 2022, published 2025):

What was measured:
incident lung cancer = details: exploratory analysis of CANTOS; cited from earlier work
[1] = test system: non-small cell lung cancer (NSCLC); details: second/third-line with docetaxel, irrespective of histologic subtype and driver mutation; cited from earlier work
NF-κB [2] = assay: NF-κB ligand screen in pNGL-expressing RAW264.7 macrophages; assay type: cell-based, murine; details: recombinant VCAN 1 nM, compared with LPS 1 μg/mL
From the text: (§1) FIG. 4. Tumor-secreted versican drives macrophage IKKβ, metastasis, and is a cancer biomarker. (A-E) Kras-mutant and wild-type cancer cell RNA and supernatants were subjected to microarray and LC-MSMS analyses, respectively. Shown are experimental design (A), top-20 over-represented transcripts (B) and secretory proteins (C), and Vcan/VCAN mRNA/protein expression (D, E). n=2-3/group; P, probability, two-way ANOVA; Bold letters, false discovery rate (FDR) q<0.05 compared with Kras-wild-type cells, two-stage linear step-up procedure of Benjamini, Hochberg, and Yekutieli. (F, G) Representative bioluminescent images (F) and data summary (G) from pNGL RAW264.7 cells exposed to lipopolysaccharide (LPS; 1 μg/mL) or recombinant proteins (1-2 nM). n=5/group; P, probability, two-way ANOVA; ****, P<0.0001 compared with other groups, Bonferroni post-tests. (H) Immunoblots of mouse BMDM exposed to VCAN. n=5/group. (I-M) LLC cells stably expressing control (shC) and anti-Vcan (shVcan) shRNA were validated and injected intrapleurally into NGL mice. […]
Mice were imaged for NF-κB reporter bioluminescent signal daily starting at day 10 post-tumor cell injection until sacrifice. […] Data were analyzed using Living Image v.4.2 (Perkin-Elmer, Waltham, MA) as described previously (9, 10, 15, 15, 22, 29, 39). […]

IKKβ = assay: immunoblots of mouse BMDM exposed to VCAN; assay type: cell-based; details: primary murine BMDM, recombinant human versican 1 nM
From the text: as §1, with “mice. Shown are immunoblots (I), Vcan mRNA expression (J), and data summaries (K, L) and representative photographic and bioluminescent images (M) taken 14 days post-tumor cells. (I, J) n=5/group; (K-M) n=16/group; P, probability, unpaired Student's t-test.” for “mice.”

NF-κB [3] = assay: NF-κB reporter response of pNGL RAW264.7 macrophages to tumor-conditioned media with bortezomib pre-treatment; assay type: cell-based, murine; details: pre-treatment 1 μg/mL (3 μM) for 1 hour
Protocol: FIG. 3. Tumor-secreted factors drive IKKβ activation, differentiation, and IL-1β secretion in macrophages. (A) Color-coded cancer cells with Kras mutation status. (B-E) Bioluminescent images with pseudocolor scale (B, E), immunoblots (C), and data summaries (D, E) from exposure of RAW264.7 macrophages stably expressing pNGL (B-D) and murine bone marrow derived macrophages (BMDM) obtained from NGL mice after one-week 100 ng/ml M-CSF exposure (E) to cell-free tumor-conditioned media or DMEM (white boxes) with or without bortezomib pre-treatment (1 μg/mL˜3 µM for 1 hour). (D, E) n=5/group; P, probability, one or two-way ANOVA; **** and ####, P<0.0001 compared with other groups or saline-treated cells, respectively, Bonferroni post-tests. (F) Flow cytometry-assessed differentiation marker expression of murine bone marrow cells before (day 0) and after (day 7) one-week M-CSF exposure. (G) Microarray strategy and top-five differentially expressed genes (ΔGE) of murine BMDM compared with cancer cells (ΔGE1) and of tumor-conditioned BMDM compared with naïve BMDM (ΔGE2). n=5/group; P, probability, one-way ANOVA. (H) Bioluminescent images and data summary of NGL, NGL; Tnf−/−, and NGL;Il1b−/− mice 14 days post-pleural injection of LLC cells. n=13/group; P, probability, one-way ANOVA; ** and ***, P<0.01 and P<0.001, respectively, compared with NGL mice, Bonferroni post-tests. […]

## canakinumab: anti-IL-1β neutralizing monoclonal antibody
Incident lung cancer
  effect against incident lung cancer: strong protective effects against incident lung cancer
[1]
  trial outcome: negative

## VCAN: recombinant human active versican, TLR2 ligand glycoprotein
NF-κB [2]
  macrophage NF-κB-driven transcription: potently activates macrophage NF-κB-driven transcription to the same degree as the TLR4 ligand lipopolysaccharide (LPS)
IKKβ
  IKKβ induction: induced IKKβ in primary murine BMDM

## CC(C)C[C@H](NC(=O)[C@H](Cc1ccccc1)NC(=O)c1cnccn1)B(O)O [bortezomib]
NF-κB [3]
  NF-κB response to KrasMUT tumor-conditioned media: attenuated
